Values of other authors in patent CN110302150A, “甲硫氨酸维生素b1注射液及其的制备方法” (Chengdu Cacumen Et Folium Clerodendri Mandarinori …, priority 2019, dated 2019).
Like-named read-outs stand apart in the source and are kept apart here.

Row | SMILES | stability (during production and storage) | stability (high temperature and pH>4)
1 | CSCCC(N)C(=O)O (stereo not drawn) [甲硫氨酸] | 不稳定,较易降解 | 
2 | Cc1ncc(C[n+]2csc(CCO)c2C)c(N)n1 [维生素B1] | 不稳定,较易降解 | 不稳定
